Assay results as given in the supplement of paper PMC10307832.

How the values were obtained:
Assay in all cases: relative viability (nuclei count vs DMSO), 5 days (fraction); higher = more cells survive
[1] = tested on: HCC-827
Outline: (§1)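 For relative viability, nuclei counts in treated wells were divided by those in vehicle wells. Lung cancer cell lines had been pin-tool dosed in 1536-well plates the day after seeding and cultured for 5 days, then fixed and stained in one step (final 0.05% Triton X-100, 1% formaldehyde, 1 ug/ml Hoechst) and imaged at 4×. Doses were one drug alone or a fixed anchor-drug dose plus five library-drug doses (not always all listed) in √10 steps, and values are duplicate-plate medians.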

[2] = tested on: EMC-BAC-2
Outline: as §1

[3] = tested on: NCI-H322M
Outline: as §1

[4] = tested on: NCI-H23
Outline: as §1

[5] = tested on: EKVX
Outline: as §1

[6] = tested on: NCI-H2342
Outline: as §1

[7] = tested on: PC-14
Outline: as §1

[8] = tested on: NCI-H1666
Outline: as §1

[9] = tested on: EPLC-272H
Outline: as §1

[10] = tested on: NCI-H2405
Outline: as §1

[11] = tested on: SK-LU-1
Outline: as §1

[12] = tested on: NCI-H1975
Outline: as §1

[13] = tested on: LCLC-103H
Outline: as §1

[14] = tested on: LU99A
Outline: as §1

[15] = tested on: SW 1573
Outline: as §1

[16] = tested on: RERF-LC-KJ
Outline: as §1

[17] = tested on: NCI-H1563
Outline: as §1

[18] = tested on: LXF-289
Outline: as §1

[19] = tested on: SW 900
Outline: as §1

[20] = tested on: LK-2
Outline: as §1

[21] = tested on: NCI-H2126
Outline: as §1

[22] = tested on: ChaGo-K-1
Outline: as §1

With `O=c1cc(-c2cccc3c2Sc2ccccc2S3)oc(N2CCOCC2)c1` + CCNC(=O)c1noc(-c2cc(C(C)C)c(O)cc2O)c1-c1ccc(CN2CCOCC2)cc1 [Luminespib] (partner 0.01 µM) as the molecule, how does the relative viability ([1]; first compound 0.08 µM) read?
Its relative viability is 0.582.

And the relative viability ([1]; first compound 0.253 µM)?
The relative viability was 0.588.

What about the relative viability ([1]; first compound 0.8 µM) of the same molecule?
The relative viability was 0.656.

And the relative viability ([1]; first compound 2.53 µM)?
The relative viability was 0.588.

And the relative viability ([1]; first compound 8 µM)?
The relative viability was 0.639.

And the relative viability ([2]; first compound 0.08 µM)?
Its relative viability is 1.16.

And the relative viability ([2]; first compound 0.253 µM)?
The relative viability was 1.31.

And the relative viability ([2]; first compound 0.8 µM)?
Its relative viability is 1.13.

What about the relative viability ([2]; first compound 2.53 µM) of the same molecule?
Its relative viability is 1.18.

And the relative viability ([2]; first compound 8 µM)?
The relative viability was 1.27.

And the relative viability ([3]; first compound 0.08 µM)?
Its relative viability is 0.711.

And the relative viability ([3]; first compound 0.253 µM)?
The relative viability was 0.824.

What about the relative viability ([3]; first compound 0.8 µM) of the same molecule?
The relative viability was 0.823.

And the relative viability ([3]; first compound 2.53 µM)?
Its relative viability is 0.769.

What about the relative viability ([3]; first compound 8 µM) of the same molecule?
Its relative viability is 0.849.

And the relative viability ([4]; first compound 0.08 µM)?
Its relative viability is 0.195.

And the relative viability ([4]; first compound 0.253 µM)?
Its relative viability is 0.228.

What about the relative viability ([4]; first compound 0.8 µM) of the same molecule?
The relative viability was 0.188.

And the relative viability ([4]; first compound 2.53 µM)?
The relative viability was 0.219.

And the relative viability ([4]; first compound 8 µM)?
The relative viability was 0.209.

And the relative viability ([5]; first compound 0.08 µM)?
Its relative viability is 0.829.

And the relative viability ([5]; first compound 0.253 µM)?
Its relative viability is 0.924.

What about the relative viability ([5]; first compound 0.8 µM) of the same molecule?
Its relative viability is 0.846.

And the relative viability ([5]; first compound 2.53 µM)?
The relative viability was 0.883.

What about the relative viability ([5]; first compound 8 µM) of the same molecule?
Its relative viability is 0.853.

And the relative viability ([6]; first compound 0.08 µM)?
Its relative viability is 0.676.

What about the relative viability ([6]; first compound 0.253 µM) of the same molecule?
The relative viability was 0.68.

And the relative viability ([6]; first compound 0.8 µM)?
Its relative viability is 0.715.

What about the relative viability ([6]; first compound 2.53 µM) of the same molecule?
The relative viability was 0.663.

And the relative viability ([6]; first compound 8 µM)?
Its relative viability is 0.731.

What about the relative viability ([7]; first compound 0.08 µM) of the same molecule?
Its relative viability is 0.155.

And the relative viability ([7]; first compound 0.253 µM)?
The relative viability was 0.15.

What about the relative viability ([7]; first compound 0.8 µM) of the same molecule?
The relative viability was 0.165.

And the relative viability ([7]; first compound 2.53 µM)?
Its relative viability is 0.168.

And the relative viability ([7]; first compound 8 µM)?
The relative viability was 0.155.

And the relative viability ([8]; first compound 0.08 µM)?
The relative viability was 1.01.

And the relative viability ([8]; first compound 0.253 µM)?
The relative viability was 1.09.

What about the relative viability ([8]; first compound 0.8 µM) of the same molecule?
Its relative viability is 1.01.

What about the relative viability ([8]; first compound 2.53 µM) of the same molecule?
Its relative viability is 1.06.

What about the relative viability ([8]; first compound 8 µM) of the same molecule?
The relative viability was 1.17.

What about the relative viability ([9]; first compound 0.08 µM) of the same molecule?
The relative viability was 0.182.

What about the relative viability ([9]; first compound 0.253 µM) of the same molecule?
Its relative viability is 0.405.

What about the relative viability ([9]; first compound 0.8 µM) of the same molecule?
Its relative viability is 0.431.

And the relative viability ([9]; first compound 2.53 µM)?
Its relative viability is 0.146.

What about the relative viability ([9]; first compound 8 µM) of the same molecule?
Its relative viability is 0.292.

What about the relative viability ([10]; first compound 0.08 µM) of the same molecule?
The relative viability was 0.522.

And the relative viability ([10]; first compound 0.253 µM)?
Its relative viability is 0.565.

And the relative viability ([10]; first compound 0.8 µM)?
Its relative viability is 0.464.

What about the relative viability ([10]; first compound 2.53 µM) of the same molecule?
Its relative viability is 0.568.

What about the relative viability ([10]; first compound 8 µM) of the same molecule?
The relative viability was 0.465.

And the relative viability ([11]; first compound 0.08 µM)?
The relative viability was 0.192.

What about the relative viability ([11]; first compound 0.253 µM) of the same molecule?
The relative viability was 0.186.

And the relative viability ([11]; first compound 0.8 µM)?
Its relative viability is 0.209.

And the relative viability ([11]; first compound 2.53 µM)?
The relative viability was 0.178.

What about the relative viability ([11]; first compound 8 µM) of the same molecule?
The relative viability was 0.183.

What about the relative viability ([12]; first compound 0.08 µM) of the same molecule?
Its relative viability is 0.121.

And the relative viability ([12]; first compound 0.253 µM)?
Its relative viability is 0.167.

And the relative viability ([12]; first compound 0.8 µM)?
The relative viability was 0.15.

What about the relative viability ([12]; first compound 2.53 µM) of the same molecule?
The relative viability was 0.231.

What about the relative viability ([12]; first compound 8 µM) of the same molecule?
Its relative viability is 0.169.

And the relative viability ([13]; first compound 0.08 µM)?
The relative viability was 0.878.

And the relative viability ([13]; first compound 0.253 µM)?
Its relative viability is 1.17.

And the relative viability ([13]; first compound 0.8 µM)?
Its relative viability is 1.05.

And the relative viability ([13]; first compound 2.53 µM)?
The relative viability was 0.959.

What about the relative viability ([13]; first compound 8 µM) of the same molecule?
The relative viability was 0.792.

What about the relative viability ([14]; first compound 0.08 µM) of the same molecule?
The relative viability was 0.211.

What about the relative viability ([14]; first compound 0.253 µM) of the same molecule?
Its relative viability is 0.219.

And the relative viability ([14]; first compound 0.8 µM)?
The relative viability was 0.259.

What about the relative viability ([14]; first compound 2.53 µM) of the same molecule?
Its relative viability is 0.221.

What about the relative viability ([14]; first compound 8 µM) of the same molecule?
Its relative viability is 0.306.

What about the relative viability ([15]; first compound 0.08 µM) of the same molecule?
The relative viability was 0.213.

What about the relative viability ([15]; first compound 0.253 µM) of the same molecule?
Its relative viability is 0.18.

What about the relative viability ([15]; first compound 0.8 µM) of the same molecule?
The relative viability was 0.495.

And the relative viability ([15]; first compound 2.53 µM)?
The relative viability was 0.194.

What about the relative viability ([15]; first compound 8 µM) of the same molecule?
The relative viability was 0.237.

What about the relative viability ([16]; first compound 0.08 µM) of the same molecule?
The relative viability was 1.06.

What about the relative viability ([16]; first compound 0.253 µM) of the same molecule?
The relative viability was 1.56.

And the relative viability ([16]; first compound 0.8 µM)?
The relative viability was 1.24.

What about the relative viability ([16]; first compound 2.53 µM) of the same molecule?
The relative viability was 1.35.

And the relative viability ([16]; first compound 8 µM)?
The relative viability was 1.42.

And the relative viability ([17]; first compound 0.08 µM)?
The relative viability was 0.708.

And the relative viability ([17]; first compound 0.253 µM)?
The relative viability was 0.567.

And the relative viability ([17]; first compound 0.8 µM)?
The relative viability was 0.491.

And the relative viability ([17]; first compound 2.53 µM)?
Its relative viability is 0.491.

What about the relative viability ([17]; first compound 8 µM) of the same molecule?
Its relative viability is 0.497.

And the relative viability ([18]; first compound 0.08 µM)?
The relative viability was 0.607.

What about the relative viability ([18]; first compound 0.253 µM) of the same molecule?
The relative viability was 0.764.

And the relative viability ([18]; first compound 0.8 µM)?
The relative viability was 0.636.

And the relative viability ([18]; first compound 2.53 µM)?
Its relative viability is 0.69.

What about the relative viability ([18]; first compound 8 µM) of the same molecule?
Its relative viability is 0.765.

What about the relative viability ([19]; first compound 0.08 µM) of the same molecule?
The relative viability was 0.198.

What about the relative viability ([19]; first compound 0.253 µM) of the same molecule?
Its relative viability is 0.187.

What about the relative viability ([19]; first compound 0.8 µM) of the same molecule?
Its relative viability is 0.166.

What about the relative viability ([19]; first compound 2.53 µM) of the same molecule?
Its relative viability is 0.149.

What about the relative viability ([19]; first compound 8 µM) of the same molecule?
Its relative viability is 0.15.

What about the relative viability ([20]; first compound 0.08 µM) of the same molecule?
The relative viability was 0.184.

And the relative viability ([20]; first compound 0.253 µM)?
Its relative viability is 0.184.

And the relative viability ([20]; first compound 0.8 µM)?
Its relative viability is 0.151.

What about the relative viability ([20]; first compound 2.53 µM) of the same molecule?
The relative viability was 0.22.

And the relative viability ([20]; first compound 8 µM)?
Its relative viability is 0.176.

And the relative viability ([21]; first compound 0.08 µM)?
Its relative viability is 0.791.

What about the relative viability ([21]; first compound 0.253 µM) of the same molecule?
The relative viability was 1.

What about the relative viability ([21]; first compound 0.8 µM) of the same molecule?
Its relative viability is 0.963.

And the relative viability ([21]; first compound 2.53 µM)?
Its relative viability is 0.822.

And the relative viability ([21]; first compound 8 µM)?
The relative viability was 0.836.

What about the relative viability ([22]; first compound 0.08 µM) of the same molecule?
The relative viability was 0.533.

And the relative viability ([22]; first compound 0.253 µM)?
The relative viability was 0.763.

What about the relative viability ([22]; first compound 0.8 µM) of the same molecule?
Its relative viability is 0.658.

And the relative viability ([22]; first compound 2.53 µM)?
Its relative viability is 0.67.

And the relative viability ([22]; first compound 8 µM)?
The relative viability was 0.548.
